Where a name gives a salt, the structure may show the parent alone. Read-outs that look alike come from different tables or passages of the source.
Key:
human p38 kinase alpha = molecular target: T1, human p38 kinase alpha (Homo sapiens, UniProt Q16539); assay: p38 kinase in vitro assay, phosphorylation of biotinylated PHAS-I with gamma 32P-ATP; type: biochemical
T1 construct: The coding region of the human p38a cDNA was obtained by PCR-amplification from RNA isolated from the human monocyte cell line THP.1; GST (N); made in house; host or cells: E. coli DH10B
Procedure, shortened: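 Radiometric filter-capture read-out: streptavidin plates trap biotin-PHAS-I labelled by activated (MKK6) human p38α from γ-32P-ATP. Buffer 25 mM HEPES pH 7.5, 10 mM magnesium acetate, 50 μM cold ATP; reactions 1 h or overnight at 30 °C; inhibitors 10-fold dilutions 100 to 0.001 μM, triplicates, 1% DMSO.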

TNF-α = assay: Rat assay: LPS-challenged rats, serum TNF-α by ELISA; type: in vivo; details: for ratLPS/% Inh @20.0 (mg/kg): 20.0 mg/kg oral gavage; for inhibition in vivo at 1 mg/kg: 1.0 mg/kg oral gavage, read-out: ratLPS/% Inh @1.0 (mg/kg)
human TNF = assay: TNF inhibition: human whole blood assay; type: cell-based; details: Homo sapiens
Description: Human peripheral blood is obtained in heparinized tubes. A 190 μL aliquot of blood is placed in each well of a 96 well u-bottom plate. […] After one hour of incubation at 37° C., […] of lipopolysaccharide (Salmonella typhosa, Sigma) in phosphate buffered saline is added resulting in a final concentration of […]. After four to five hours of incubation at 37° C., the supernatants are harvested and assayed at 1:10 or 1:20 dilutions for human TNF using ELISA.

[1] = read-out: P38 alpha kinase IC50
[2] = Rattus norvegicus, po, 5 mpk oral gavage, 4 h before LPS challenge, read-out: Rat LPS Model % Inhibition @ dose @ predose time
[3] = TNF production, LPS-stimulated human whole blood, read-out: Human Whole Blood IC50
[4] = Rattus norvegicus, po, 4 hours before LPS challenge
[5] = Rattus norvegicus, po, 5.0 mg/kg oral gavage, 4 hours before LPS challenge, read-out: ratLPS/% Inh @5.0 (mg/kg)
[6] = TNF production, LPS-stimulated human whole blood, read-out: HWB IC50

T1 sequence (Q16539 whole entry): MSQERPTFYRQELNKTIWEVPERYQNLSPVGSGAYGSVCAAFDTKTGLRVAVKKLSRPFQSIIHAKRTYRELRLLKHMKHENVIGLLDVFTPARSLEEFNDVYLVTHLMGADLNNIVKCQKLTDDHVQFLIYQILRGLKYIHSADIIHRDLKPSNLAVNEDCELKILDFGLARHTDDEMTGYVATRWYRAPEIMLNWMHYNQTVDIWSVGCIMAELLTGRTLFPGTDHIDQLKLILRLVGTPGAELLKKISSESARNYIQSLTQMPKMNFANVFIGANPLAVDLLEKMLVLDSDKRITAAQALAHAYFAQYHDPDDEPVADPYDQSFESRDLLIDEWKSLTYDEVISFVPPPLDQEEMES

Row | SMILES | IC50 (human p38 kinase alpha; [1]) | inhibition in vivo at 5 mg/kg (TNF-α; [2]) | IC50 (human TNF; [3]) | also measured
1 | Nc1ccc(Cc2[nH]nc(-c3ccc(Cl)cc3)c2-c2ccncc2)cc1 [Example C-116, 5-(4-AMINOBENZYL)-4-(4-PYRIDYL)-3-(4-CHLOROPHENYL)PYRAZOLE] | 429 nM | 53% | 500 nM | –
2 | C[C@@H](O)C(=O)N1CCC(c2[nH]nc(-c3ccc(Cl)cc3)c2-c2ccncn2)CC1 [Example D-6, hydrochloride] | – | – | – | IC50 (human p38 kinase alpha; read-out: p38 alpha IC50): 83 nM; ratLPS/% Inh @20.0 (mg/kg) (TNF-α; 4 hours before LPS challenge): 100%; inhibition in vivo at 1 mg/kg (TNF-α; [4]): 82%; inhibition in vivo at 5 mg/kg (TNF-α; [5]): 96%; IC50 (human TNF; [6]): 1330 nM
3 | N[C@H]1CC[C@@H](c2[nH]nc(-c3ccc(Cl)cc3)c2-c2ccncc2)CC1 [Example C-92, 5-cis-(4-AMINOCYCLOHEXYL)-4-(4-PYRIDYL)-3-(4-CHLOROPHENYL)PYRAZOLE] | 24 nM | 66% | 280 nM | –
4 | COCC(=O)N1CCC(c2[nH]nc(-c3ccc(Cl)cc3)c2-c2ccncc2)CC1 [Example C-77] | 71 nM | 92% | 8200 nM | –
5 | CC(C)(O)CCCc1[nH]nc(-c2ccc(F)cc2)c1-c1ccncc1 [Example C-133] | 160 nM | 55% | 4540 nM | –
6 | COCC(=O)N1CCC(c2[nH]nc(-c3ccc(F)cc3)c2-c2ccncc2)CC1 [Example C-112] | 540 nM | 89% | 6360 nM | –
7 | N=C(N)N1CCC(c2[nH]nc(-c3ccc(F)cc3)c2-c2ccncc2)CC1 [Example C-108] | 20 nM | 0% | 730 nM | –
8 | Clc1ccc(-c2n[nH]c(C3CCNCC3)c2-c2ccncc2)cc1 [Example C-74, 5-(4-piperidyl)-4-(4-pyridyl)-3-(4-chlorophenyl)pyrazole hydrochloride] | 37 nM | 54% | 560 nM | –
9 | CC(=O)N1CCCC(c2[nH]nc(-c3ccc(F)cc3)c2-c2ccncc2)C1 (stereo not drawn) [Example C-138] | 280 nM | 26% | 680 nM | –
10 | O=C(CO)N1CCC(c2[nH]nc(-c3ccc(F)cc3)c2-c2ccncn2)CC1 [Example D-8] | – | – | – | IC50 (human p38 kinase alpha; read-out: p38 alpha IC50): 180 nM; inhibition in vivo at 1 mg/kg (TNF-α; [4]): 65%; inhibition in vivo at 5 mg/kg (TNF-α; [5]): 85%; IC50 (human TNF; [6]): 1300 nM
11 | O=C([C@H](O)c1ccccc1)N1CCC(c2[nH]nc(-c3ccc(Cl)cc3)c2-c2ccncn2)CC1 [Example D-7, (R)-N-(2-Hydroxy-2-phenylacetyl)-5-(4-piperidyl)-4-(4-pyrimidyl)-3-(4-chlorophenyl)pyrazole] | – | – | – | IC50 (human p38 kinase alpha; read-out: p38 alpha IC50): 440 nM; inhibition in vivo at 5 mg/kg (TNF-α; [5]): 0%; IC50 (human TNF; [6]): > 25000 nM
12 | CN(C)[C@H]1CC[C@@H](c2[nH]nc(-c3ccc(Cl)cc3)c2-c2ccncc2)CC1 [Example C-93, 5-cis-(4-N,N-DIMETHYLAMINOCYCLOHEXYL)-4-(4-PYRIDYL)-3-(4-CHLOROPHENYL)PYRAZOLE] | 9 nM | 50% | 380 nM | –
13 | CN1CCC[C@@H]1c1[nH]nc(-c2ccc(F)cc2)c1-c1ccncc1 [Example C-126, (R)-5-(N-METHYL-2-PYROLIDINYL)-4-(4-PYRIDYL)-3-(4-FLUOROPHENYL)PYRAZOLE] | 710 nM | 6% | > 25000 nM | –
14 | COCc1[nH]nc(-c2ccc(Cl)cc2)c1-c1ccncc1 [Example C-115, 5-(METHOXYMETHYL)-4-(4-PYRIDYL)-3-(4-CHLOROPHENYL)PYRAZOLE] | 42 nM | 39% | 10200 nM | –
15 | O=C(CO)N1CCC(c2[nH]nc(-c3ccc(C(F)(F)F)cc3)c2-c2ccncn2)CC1 [Example D-9] | – | – | – | IC50 (human p38 kinase alpha; read-out: p38 alpha IC50): 1630 nM; inhibition in vivo at 1 mg/kg (TNF-α; [4]): 5%; inhibition in vivo at 5 mg/kg (TNF-α; [5]): 86%; IC50 (human TNF; [6]): 15800 nM
16 | CS(=O)(=O)N1CCC(c2[nH]nc(-c3ccc(Cl)cc3)c2-c2ccncc2)CC1 [Example C-78] | 68 nM | 87% | 10500 nM | –
17 | CN1CCC(c2[nH]nc(-c3ccc(C(F)(F)F)cc3)c2-c2ccncc2)CC1 [Example C-84, 5-(N-METHYL-4-(4-PYRIDYL)-4-(4-PYRIDYL)-3-[4-(TRIFLUOROMETHYL)PHENYL]PYRAZOLE] | 48 nM | 22% | 880 nM | –

Row | SMILES | IC50 (human p38 kinase alpha; [1]) | inhibition in vivo at 5 mg/kg (TNF-α; [2]) | IC50 (human TNF; [3]) | also measured
18 | CC(C)N[C@H]1CC[C@@H](c2[nH]nc(-c3ccc(Cl)cc3)c2-c2ccncc2)CC1 [Example C-94, 5-[cis-4-N-(2-PROPYL)AMINOCYCLOHEXYL]-4-(4-PYRIDYL)-3-(4-CHLOROPHENYL)PYRAZOLE] | 20 nM | 73% | 270 nM | –
19 | CN(C)[C@H]1CC[C@@H](c2[nH]nc(-c3cccc(Cl)c3)c2-c2ccncc2)CC1 [Example C-106, 5-cis-(4-N,N-DIMETHYLAMINOCYCLOHEXYL)-4-(4-PYRIDYL)-3-(3-CHLOROPHENYL)PYRAZOLE] | 26 nM | 23% | 440 nM | –
20 | COCCN1CCC(c2[nH]nc(-c3ccc(Cl)cc3)c2-c2ccncc2)CC1 [Example C-79] | 45 nM | 83% | 520 nM | –
21 | CS(=O)(=O)N1CCC(c2[nH]nc(-c3ccc(F)cc3)c2-c2ccncc2)CC1 [Example C-111] | 210 nM | 39% | 6050 nM | –
22 | COCC(=O)N1CCCC(c2[nH]nc(-c3ccc(F)cc3)c2-c2ccncc2)C1 (stereo not drawn) [Example C-139] | 200 nM | 46% | 3660 nM | –
23 | O=C(CO)N1CCC(c2[nH]nc(-c3cccc(C(F)(F)F)c3)c2-c2ccncn2)CC1 [Example D-13] | – | – | – | IC50 (human p38 kinase alpha; read-out: p38 alpha IC50): 330 nM; inhibition in vivo at 1 mg/kg (TNF-α; [4]): 53%; inhibition in vivo at 5 mg/kg (TNF-α; [5]): 87%; IC50 (human TNF; [6]): 8360 nM
24 | O=C(CO)N1CCC(c2[nH]nc(-c3ccc(OC(F)(F)F)cc3)c2-c2ccncn2)CC1 [Example D-10, N-(2-Hydroxyacetyl)-5-(4-piperidyl)-4-(4-pyrimidyl)-3-(4-trifluoromethoxyphenyl)pyrazole] | – | – | – | IC50 (human p38 kinase alpha; read-out: p38 alpha IC50): 3950 nM; inhibition in vivo at 5 mg/kg (TNF-α; [5]): 80%; IC50 (human TNF; [6]): 14800 nM
25 | CC(C)(O)C(=O)N1CCC(c2[nH]nc(-c3ccc(Cl)cc3)c2-c2ccncn2)CC1 [Example D-4, hydrochloride] | – | – | – | IC50 (human p38 kinase alpha; read-out: p38 alpha IC50): 910 nM; ratLPS/% Inh @20.0 (mg/kg) (TNF-α; 4 hours before LPS challenge): 99.0%; inhibition in vivo at 1 mg/kg (TNF-α; [4]): 42.3%; inhibition in vivo at 5 mg/kg (TNF-α; [5]): 83%; IC50 (human TNF; [6]): 1550 nM
26 | N[C@H]1CC[C@@H](c2[nH]nc(-c3ccc(F)cc3)c2-c2ccncc2)CC1 [Example C-98, 5-cis-(4-AMINOCYCLOHEXYL-4-(4-PYRIDYL)-3-(4-FLUOROPHENYL)PYRAZOLE] | 16 nM | 78% | 640 nM | –
27 | CN1CCCC(c2[nH]nc(-c3ccc(F)cc3)c2-c2ccncc2)C1 (stereo not drawn) [Example C-91] | 54 nM | 63% | 2310 nM | –
28 | CC(=O)N[C@H]1CC[C@@H](c2[nH]nc(-c3ccc(Cl)cc3)c2-c2ccncc2)CC1 [Example C-95, 5- cis-[4-N-(ACETYL)AMINOCYCLOHEXYL]-4-(4-PYRIDYL)-3-(4-CHLOROPHENYL)PYRAZOLE] | – | 32% | 3910 nM | –
29 | CC(=O)Nc1ccc(Cc2[nH]nc(-c3ccc(Cl)cc3)c2-c2ccncc2)cc1 [Example C-118, 5-[4-(N-ACETYL)AMINOBENZYL]-4-(4-PYRIDYL)-3-(4-CHLOROPHENYL)PYRAZOLE] | 298 nM | 39% | > 25000 nM | –
30 | CN1CCC[C@@H](c2[nH]nc(-c3ccc(F)cc3)c2-c2ccncc2)C1 [Example C-128] | 90 nM | 63% | 2220 nM | –
31 | COC(=O)N1CCN(c2[nH]nc(-c3ccc(Cl)cc3)c2-c2ccncc2)CC1 [Example A-319, methyl 4-[5-(4-chlorophenyl)-4-(4-pyridinyl)-1H-pyrazol-3-yl]-1-piperazinecarboxylate, monohydrate] | – | – | – | inhibition in vivo at 3 mg/kg (TNF-α; Rattus norvegicus, po, Table 8, dose 3.0 mg/kg, read-out: Rat LPS Assay % Inhibition): 62%; IC50 (human TNF; Table 8, human whole blood, LPS, read-out: TNF Inhibition-Human Whole Blood Assay): > 25000 nM
32 | C[C@H](O)C(=O)N1CCC(c2[nH]nc(-c3ccc(Cl)cc3)c2-c2ccncn2)CC1 [Example D-5, hydrochloride] | – | – | – | IC50 (human p38 kinase alpha; read-out: p38 alpha IC50): 140 nM; ratLPS/% Inh @20.0 (mg/kg) (TNF-α; 4 hours before LPS challenge): 83.0%; inhibition in vivo at 1 mg/kg (TNF-α; [4]): 65%; inhibition in vivo at 5 mg/kg (TNF-α; [5]): 78.5%; IC50 (human TNF; [6]): 4090 nM
33 | CN(C)[C@H]1CC[C@@H](c2[nH]nc(-c3ccc(F)cc3)c2-c2ccncc2)CC1 [Example C-99, 5-(cis-4-N,N-DIMETHYLAMINOCYCLOHEXYL)-4-(4-PYRIDYL)-3-(4-FLUOROPHENYL)PYRAZOLE] | 62 nM | 36% | 380 nM | –
34 | OC[C@@H](Cc1ccccc1)Nc1cc(-c2c[nH]nc2-c2ccc(F)cc2)ccn1 [Example A-361, (βR)-β-[[4-[3-(4-fluorophenyl)-1H-pyrazol-4-yl]-2-pyridinyl]amino]benzene propanol] | – | – | – | inhibition in vivo at 20 mg/kg (TNF-α; Rattus norvegicus, po, Table 9, dose 20 mg/kg): 9%; IC50 (human TNF; Table 9, human whole blood, LPS, read-out: TNF Inhibition-Human Whole Blood Assay): 1000 nM
